{"source": "patent US20250312468A1", "about": "“ANTI-PROTAC ANTIBODIES AND COMPLEXES” (Merck Patent GmbH, priority 2021, published 2025)", "key": {"Mouse serum stability": {"experiment": "Mouse serum stability", "format": "in vitro ADME", "settings": "5 μM, 37° C.", "procedure": "The mixture was incubated 2 hours at room temperature while shaking at 650 rpm. 15% (vol/vol) 2 M HEPES buffer pH 7.55 were added to mouse serum from Biowest (Lot.no. S18169S2160) followed by sterile filtration.\nThe incubation was stopped by freezing at −20° C.\nThe concentration of PROTAC GNE987 was quantified using LC-MS.\nQuantification was performed using a total antibody ELISA (FIG. 24)."}, "BRD4": {"target": "BRD4 (Homo sapiens, UniProt O60885)", "experiment": "BRD4 Western blot degradation assay in MV411 cells", "format": "cell-based", "design": "endogenous in cells; host or cells: MV411", "settings": "CD33-positive MV411 cells, 24 h, complexes (1:1)", "procedure": "Therefore, CD33-positive MV411 cells were treated with CD33xMIC7+GNE987 or DIGxMIC7+GNE987, as non-binding PAX control, at different concentrations and GNE987 alone as control. MV411 cells were cultured in RPMI-1640 medium supplemented with 10% FCS and penicillin-streptomycin. MV411 cells were seeded in 12-well plates at 1 million cells/ml in 2 ml culture medium and cultured overnight in cell incubator at 37° C. and 5% CO2. Complexation was performed as described in chapter 7.4. GNE987 only was preincubated at identical conditions but in absence of antibody. Subsequently, cells were treated by nanodrop dispersion using a Tecan dispenser with either CD33xMIC7+GNE987 (1:1), DIGxMIC7+GNE987 (1:1) or GNE987 in the respective concentration. All conditions were normalized to 0.0005% (v/V) DMSO and 3.0E-5% Tween20. Cells were incubated for 24 h in cell incubator at 37° C. and 5% CO2. […] Protein concentration was determined via Mettler Toledo UV5Nano photometer. […]\nAfter incubation with corresponding HRP-labeled anti-rabbit/mouse secondary antibodies (GE-Healthcare) at 1:10,000 dilution, blots were detected using ECL solution (Advansta) and x-ray films (GE-Healthcare). Results were analyzed with ImageJ software (version 1.53K, NIH). […]"}, "[1]": {"settings": "mouse, in vivo", "procedure": "After shaking/vortexing for 1 min, samples were filtered, (Captiva filtration on polypropylene filter, 0.45 μm pore size) and 120 μL of methanol:water (1:1, v/v) was added to the filtrate and stored at 4° C. until analysis and put in the autosampler before injection. The analysis was carried out on a LC-MS/MS system consisting of an UPLC coupled to a QTRAP 6500+ (Sciex) mass spectrometer. Mobile phase A was water with 0.1% formic acid and mobile phase B was methanol with 0.1% formic acid. […] The chromatography was performed on a Poroshell 120 EC-C18 column, 2.7 μm particles, 3×50 mm, from Agilent Technologies. […] The calibration curve for quantitation was based on standards ranging from 0.5 (Lower Limit of Quantitation) to 10000 (Upper Limit of Quantitation) ng/ml, with 5 calibration points minimum and minimum 75% of calibration standards to be within […] of their nominal values. The total antibody concentration was determined by ligand binding assay (LBA) based on the Meso Scale Diagnostics technology (MSD, LLC., Rockville, MD). […] After a final washing step, 150 μL of 2×MSD Read Buffer T with surfactant (MSD, #R92TC) was added to each well and plates were read on a MESO Quickplex SQ120 plate reader (MSD). […] The lower limit of quantification (LLOQ) was 50 ng/ml."}, "HEPG2 cells": {"system": "HEPG2 cells", "experiment": "CellTiter-Glo cell viability assay (MIC2-based PAX)", "settings": "EGFR-negative HEPG2, complexes at 50% loading", "procedure": "2000 cells per well were seeded into white-opaque 384-well plates followed by overnight incubation in a humid chamber at 37° C. and 5% CO2. Complexation was performed as described in chapter 7.4.\nThe solutions were added to the cells based on the antibody concentration using Tecan D300e dispenser and all wells were normalized to the same volume using 0.3% TW20 in PBS pH 7.4 and DMSO. The assay was developed after 3 days if not otherwise stated using CellTiter-Glo Luminescent Cell Viability Assay as described in the manufacturer's protocol. In brief, the plates were equilibrated to room temperature for 30 minutes. 100 mL CellTiter-Glo Buffer were added to the CellTiter-Glo Substrate Flask and mixed well. 30 μL of the reagent was transferred to each well. After incubation for 3 minutes at room temperature while shaking at 550 rpm, the plate was incubated for another 10 minutes at room temperature. The luminescence was read on an Envision reader. The evaluation was performed using GraphPad Prism 8 by normalization of cells treated with sample to untreated cells. The data were fitted with 4 point logistic curve to determine the IC50 value."}}, "data": [{"smiles": "Cc1ncsc1-c1ccc(CNC(=O)[C@@H]2C[C@@H](O)CN2C(=O)[C@@H](NC(=O)CCCCCCCCCCNC(=O)c2cc3c(cc2CS(C)(=O)=O)-c2cn(C)c(=O)c4[nH]cc(c24)CN3c2ncc(F)cc2F)C(C)(C)C)cc1", "note": "[GNE987]", "values": [{"measurement": "stability of GNE987 in mouse serum (LC-MS)", "setting": "Mouse serum stability", "result": "stable over 72 hours"}, {"measurement": "BRD4 degradation (Western blot)", "setting": "BRD4", "result": "BRD4 degradation was found"}, {"measurement": "time after which PROTAC GNE987 concentration fell below LLOQ", "setting": "[1]", "result": 25, "unit": "h"}, {"measurement": "half-life of the PROTAC GNE987", "setting": "[1]; iv, 0.4 mg/kg", "result": 5.8, "unit": "h"}, {"measurement": "IC50", "setting": "HEPG2 cells", "result": 3.1, "unit": "nM"}]}]}
